Experimental data from paper PMC6962393, “Targeting the tumor vasculature with engineered cystine-knot miniproteins” (Nature Communications, 2020).
Where no end group is shown, it is not given here. The star is where a group is joined. Biotin = O=C1N[C@H]2[C@H](CS[C@H]2CCCCC(=O)*)N1

What was measured:
[1] = tested on: EDB in U-87 MG glioblastoma xenograft tumor sections; experiment: Immunofluorescence staining of U-87 MG tumor tissue sections; set-up: species or system human U-87 MG grown as mouse xenograft; settings: biotinylated miniprotein tetramerized with Cy3-labeled streptavidin, 6 µm sections
Procedure: Cryopreserved tumor pieces were cut in 6-µm-thick sections, fixed in ice cold acetone for 5 min, and air-dried. Slides were then blocked in PBS with 3% BSA at RT for 5 min. For staining of EDB, 1 µg of the respective biotinylated cystine-knot miniprotein was incubated with 2.9 µg streptavidin-Cy3 conjugate (Rockland Immunochemicals) at RT for 30 min. The pre-formed complex or 0.1 µg AF680-(MC-FN-010)3 and anti-mouse CD31 antibody (RB-10333-P1, Thermo Fisher) diluted 1:100 in PBS with 1% BSA was then added to the tumor sections and incubated for 30 min at 37 °C. Afterwards, slides were washed three times with PBS containing 1% BSA. CD31 staining of sections treated with pre-formed complex was performed with a rat anti-mouse CD31 IgG antibody (102416; BioLegend) diluted 1:100 in PBS with 1% BSA for 30 min at 37 °C and detected with a secondary […] IgG-Cy3 antibody (111-165-003; Jackson ImmunoResearch) diluted 1:400 in PBS with 1% BSA for 30 min at 37 °C. After three washing steps in PBS, cell nuclei were stained with Höchst 33342 (Thermo Fisher Scientific) diluted 1:5000 in PBS for 30 min at RT. Slides were washed again as described above and covered with coverslips in a thin layer of mounting medium (Dako). Images were captured with a Zeiss Apotome microscope (Carl Zeiss) and analyzed with ZEN software (Carl Zeiss).

[2] = target: T1, biotinylated human FN-67B89 (Homo sapiens, UniProt P02751); experiment: Surface plasmon resonance, binding kinetics to FN-67B89; settings: for binding of tag-free variant to FN-67B89 by SPR: Fig 2d, multi-cycle kinetics, 50 to 1000 nM
T1 construct: flanked by its surrounding type III domains (FN-67B89, amino acid G1080-E1455); made in house; host or cells: E. coli BL21 (DE3), pET-21a
Procedure: Binding kinetics of monomeric and trimeric cystine-knot miniprotein ligands to its target protein was determined using a Biacore T-100 device (GE Healthcare Life Science) with PBS-T as running buffer. For this, the biotinylated FN-67B89 protein (200–300 µg/mL) was captured by binding to a flow cell of an SA sensor chip (GE Healthcare Life Science). To analyze monomeric ligands, an immobilized target density of maximum 750 response units (RU) was applied and for trimeric variants a RU of maximum 400 was aimed for. Binding analysis of monomeric ligands was performed using a multi-cycle kinetic method with concentrations ranging from 50 to 4000 nM. A cycle started with an association period of 90 s, followed by a dissociation period of 420 s and a final regeneration step. Kinetic measurement was conducted applying a flow rate of 20 µL/min. Trimeric variants were analyzed under the same association and dissociation conditions, but using the single-cycle kinetic measurement mode in a constant flow of […]. In this case the analyte concentration was between 1.25 and 10 nM. Binding kinetics and steady-state analysis were calculated using a global kinetic fit model (1:1 Langmuir, Biacore T-100 Evaluation Software; GE Healthcare Life Science).

FN-B = experiment: Hit identification ranking score (FN-B to BSA ELISA signal normalized to expression rate); assay type: binding, human; settings: signal (FN-B) to noise (BSA) ELISA ratio normalized to expression rate of Trx-cystine-knot miniprotein; MCopt 1.0 library
Procedure: Single colonies were picked, sequenced, and transferred to a 96-well plate for small-scale expression in 1 mL autoinduction medium (MagicMedia™; Thermo Fisher Scientific). Protein production was conducted overnight at 30 °C and 220 rpm. Cells were harvested by centrifugation at 3000 × g for 15 min, lysed via incubation in buffer (20 mM Tris, 2 mM MgCl2, 20 mM NaCl, pH 8) containing 0.1 mg/mL lysozyme (Merck Millipore) and 5 U/mL benzonase (Merck Millipore) combined with a freeze–thaw cycle, and heated for 10 min at 80 °C. After a final centrifugation (3000 × g, 15 min, 4 °C) to remove cell debris, the supernatant was collected for E-PAGE™ and binding analysis. E-PAGE^TM (Life Technologies) was used as a high throughput gel system to simultaneously analyze 96-probes in parallel for a quantification of produced and heat-purified proteins. E-PAGE^TM analysis was performed according to the manufacturer's instructions. ELISA was used as a technique to analyze protein–protein interactions. […] The wells were washed three times with PBS-T (1× PBS with 0.1% (w/v) Tween-20), blocked with 1× Casein buffer (Sigma Aldrich) diluted in PBS for 2 h at RT, and washed again as described. 20 µL of supernatant containing the respective heat-purified fusion protein were added to 80 µL PBS-T or 200 nM of MC-Myc-010 fusion protein (wells with anti-c-myc antibody) diluted in PBS-T, applied to the cavities, and incubated for 1 h at 4 °C. After three times of washing with PBS-T, binding of the respective variant was detected with a horseradish peroxidase (HRP)-conjugated anti-S-tag antibody (ab18589 or ab19324; Abcam) 1:2000 diluted in PBS. Enzymatic reaction was measured with TMB as a chromogenic substrate and stopped with 0.2 M HCl after approximately 5 min. The measurement of absorbance at 450 nm was performed using an Infinite M200 PRO Microplate Reader (Tecan). […]
Ranking scores were calculated on the basis of the signal (FN -B) to noise (BSA)
ratios determined via ELISA and were further normalized to the expression rate of Trx -cystine-knot […]

[3] = tested on: FN-6789 (type III domains 6–9 without EDB); experiment: ELISA binding of Trx-cystine-knot miniproteins to off-target control FN-6789; set-up: species or system human; settings: FN-6789, streptavidin, milk powder, BSA
[4] = SPR Biacore T-100, biotinylated human FN-67B89 on streptavidin chip, PBS-T, 1:1 Langmuir fit

T1 sequence (P02751 1080-1546): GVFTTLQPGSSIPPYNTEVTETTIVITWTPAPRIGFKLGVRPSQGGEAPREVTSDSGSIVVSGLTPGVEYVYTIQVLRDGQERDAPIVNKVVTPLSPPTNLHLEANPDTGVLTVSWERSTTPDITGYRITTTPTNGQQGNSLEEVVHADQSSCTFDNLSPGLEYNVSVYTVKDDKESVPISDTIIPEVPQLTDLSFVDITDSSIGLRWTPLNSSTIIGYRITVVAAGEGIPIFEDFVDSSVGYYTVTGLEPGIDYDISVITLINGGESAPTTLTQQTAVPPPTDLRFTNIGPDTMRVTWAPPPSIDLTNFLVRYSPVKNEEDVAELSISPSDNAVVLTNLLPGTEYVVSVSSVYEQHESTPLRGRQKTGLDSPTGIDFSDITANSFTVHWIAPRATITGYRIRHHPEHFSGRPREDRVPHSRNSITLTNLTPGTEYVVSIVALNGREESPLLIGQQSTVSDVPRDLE

Question: “MC-FN-0115-bio: biotinylated MC-FN-0115, tetramerized with Cy3-labeled streptavidin for staining (Biotin-PMCTQRANRIAACRRDSDCTGACICRGNGYCG; also: cystine-knot disulfides, pairing not given here)” was tested. Which “staining of U-87 MG tumor sections” value [1] did it give?
Answer: did not stain

Question: Which results are given for “PMCTQRKNRIRLCRRDSDCTGACICRGNGYCG (also: bicyclic or more (positions not given here)) [MC-FN-010]”?
Answer: binding of tag-free variant to FN-67B89 by SPR [2]: detectable binding activity; affinity / binding constant towards biotinylated FN-67B89 (range in words) ([2]; SPR): single-digit micromolar range; Kd [2, 4]: 1.58 µM; Koff [2, 4]: 0.07831 s⁻¹; Kon ([2]; SPR Biacore T-100, biotinylated human FN-67B89 on streptavidin chip, PBS-T, 1:1 Langmuir fit, monomers multi-cycle, trimers single-cycle): 49500 M⁻¹ s⁻¹; Ranking value (FN-B): 2.6 to 0.6

Question: Which results are given for “WKCQPTNGYRIRCRRDSDCPGDCICRGNGYCG (also: bicyclic or more (positions not given here)) [MC-FN-030, cystine-knot miniprotein clone from MCopt 1.0 library]”?
Answer: binding of tag-free variant to FN-67B89 by SPR [2]: no detectable binding; Ranking value (FN-B): 2.7 to 1.6

Question: “WTCTKKYPNTISCRRDSDCRVTCICRGNGYCG (also: bicyclic or more (positions not given here)) [MC-FN-020, cystine-knot miniprotein clone from MCopt 1.0 library, without R-I/V-R-(L) motif]” was tested. Which Ranking value (FN-B) did it give?
Answer: 3.7 to 1.7

Question: What about the “binding to off-target and control proteins” value [3] of the same substance?
Answer: strong binding
